From PMC10620091 (Nature, 2023)

What was measured:
[1] = target: T1, SpSLC9C1 (Strongylocentrotus purpuratus, UniProt A3RL54); assay: ITC (isolated CTD), nanoDSF ([…] °C shift), cryo-EM structure; assay type: binding
T1 construct: gene SLC9C1; ITC and nanoDSF: isolated CTD (S946–E1193: helix E', CNBD and β-CTD); cryo-EM: full-length SpSLC9C1 in lipid nanodiscs
T1 sequence (A3RL54 946-1193): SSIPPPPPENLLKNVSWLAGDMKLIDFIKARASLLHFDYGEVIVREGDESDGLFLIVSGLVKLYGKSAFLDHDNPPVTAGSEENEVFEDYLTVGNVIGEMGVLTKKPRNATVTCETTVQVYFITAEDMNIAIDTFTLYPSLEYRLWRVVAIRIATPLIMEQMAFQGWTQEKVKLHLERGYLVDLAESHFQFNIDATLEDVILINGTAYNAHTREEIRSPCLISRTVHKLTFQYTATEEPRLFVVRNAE

[2] = target: the molecule itself; assay: cryo-EM structure; ligand-free SpSLC9C1 in MSP 2N2 / soy polar lipid nanodiscs, pH 7.6, 150 mM Na+ (20 mM HEPES pH 7.6, 150 mM NaCl); C2 symmetry imposed on the final dimer map

Kd [1]	Molecule	stoichiometry N [2]
9.3 µM	Nc1nc2c(ncn2[C@@H]2O[C@@H]3COP(=O)(O)O[C@H]3[C@H]2O)c(=O)[nH]1 [cGMP]	
	SpSLC9C1 (sperm-specific Na+/H+ exchanger SLC9C1 from the sea urchin Strongylocentrotus purpuratus) (natural protein, UniProt A3RL54 30-1325, looked up, SpSLC9C1, Strongylocentrotus purpuratus, UniProt A3RL54, gene codon-optimized for mammalian cells; full-length protein; the first 70 N-terminal residues are not resolved in the maps; C-terminal HRV-3C cleavage site followed by Venus, myc and SBP tags; the tags were cleaved off with HRV-3C, so residues of the cleavage site may remain at the C-terminus; Homodimer by cryo-EM; also called full-length …) SSGGSGHTPTTQATHADDHDLTTHNGTEEHDDGHDDGHDDLHAHAPKVIVFISGSCLFGAISRSLFKKLPIPYTVVLLILGAILGVVASNVPLVEEHTRDVAHMDPHVLLQIFLPVLIFESAFAMDVHTFMRSFSQVCILALFGLVVASVLTAVLAMNLFNYNWNFSEAMMFGAIMSATDPVAVVALLKDLGASKQLGTIIEGESLLNDGCAIVIFNVFMKMVFFPQLTSTVGQNVLYFLQVAVAGPLWGYAVAKVTVFFLSHIFNDALVEITITLAATYLTYYIGDIWLEVSGVLAVVVLGLIVNAEKTSISPEVEVFLHRFWEMLAYLANTLIFMMVGVVVTQKALVAVDKMDWFYLIILYLAITIIRGMVISLFSPILSRIGYGLTWRNAVIMTWGGLRGAVGLALALVVENLAGNDVIGSKFLFHTAGIVVLTLVINATTIQTLLRILGMSDISIPKRLAMAGAVRRIHEGQNRTLNMLKSDRFLADADWDIATAACEISDPYSALSDDENAPADELTLGERKSVCPGCKAMVPNEPSPREFADMMEEARLRMLKAEKISYWKQFEHGMLAREALRLLVQHAEVAADEKDQFILVDDLKKSWQIKGIYPWLKRKLEDLISEKKIAAIPMPKYKLGKLMYKICHHMAFEVTINIAIVLNIVPIIMEFVVQDKMASVSTMAAPGSTVSSEPSSLQKIEDALRISNYVFFVIYAIEAIVKILGLGRHYIVSHWNKFDAFILVVALVDIIIAETLLKGSITINLSSIKVVKLFRLLRGLRMLRLTKALIPKLILVVNGKINNQLSLGYDVGKGYIIGEEEVGKIIDRMVDNKKILRELKHISETGRLQVVKELGLLQREHPGIAVSVKTRQAIRTILNHSRETIHELQGAGLLDEMEAHKLELTVEIKMKRLMNAPSSIPPPPPENLLKNVSWLAGDMKLIDFIKARASLLHFDYGEVIVREGDESDGLFLIVSGLVKLYGKSAFLDHDNPPVTAGSEENEVFEDYLTVGNVIGEMGVLTKKPRNATVTCETTVQVYFITAEDMNIAIDTFTLYPSLEYRLWRVVAIRIATPLIMEQMAFQGWTQEKVKLHLERGYLVDLAESHFQFNIDATLEDVILINGTAYNAHTREEIRSPCLISRTVHKLTFQYTATEEPRLFVVRNAEYNGPILDGRLDVDSKRSLISITEISSNMCLKHAAELRQKNSKVMLSRKSSGAAAKEEEDCIPNTSDVEQAAGVSPSVPTKTTPKPKSFLPSLGLSMSKERVNGEAVEESPVKTKQGEETPETEEGAAPRVNV	2
